Measurements: ChEMBL document CHEMBL1201862, “PubChem BioAssay data set” (2004)
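Values below derive from 48-hour exposures of cells grown in 96-well plates, with endpoints linearly interpolated between the two concentrations bracketing the appropriate inhibition level. GI50 = concentration required for 50% inhibition of growth.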 The source made the active and inactive calls. No stated cut-off is given here; in the data, active = GI50 up to about 1.1 µM and inactive = higher.

Tests used:
Test in all cases: inhibition of tumour cell growth, NCI panel, 48 h
[1] = system: NCI/ADR-RES
[2] = system: K562
[3] = system: Malme-3M
[4] = system: OVCAR-3
[5] = system: NCI-H23
[6] = system: CCRF-CEM
[7] = system: KM12
[8] = system: SK-MEL-2
[9] = system: ACHN
[10] = system: HCC 2998
[11] = system: RXF 393
[12] = system: MDA-MB-231
[13] = system: A498
[14] = system: UO-31
[15] = system: HCT-116
[16] = system: DLD-1
[17] = system: SN12C
[18] = system: NCI-H226
[19] = system: SW-620
[20] = system: KM-20L2

SMILES | GI50 [1] | GI50 [2] | GI50 [3] | GI50 [4] | GI50 [5] | GI50 [6] | GI50 [7] | GI50 [8] | GI50 [9] | GI50 [10] | GI50 [11] | GI50 [12] | GI50 [13] | GI50 [14] | GI50 [15] | GI50 [16] | GI50 [17] | GI50 [18] | GI50 [19] | GI50 [20]
COc1c(O)c(O)cc2c1-c1ccc(OC)c(=O)cc1C(NC(C)=O)CC2 (stereo not given) | 29 µM (inactive) | 3.57 µM (inactive) | 5.7 µM (inactive) | 2.21 µM (inactive) | 3.95 µM (inactive) | 3.72 µM (inactive) | 3.43 µM (inactive) | 3.15 µM (inactive) | 37.5 µM (inactive) | 5.38 µM (inactive) | 2.84 µM (inactive) | 4.94 µM (inactive) | 15.5 µM (inactive) | 56.1 µM (inactive) | 3.94 µM (inactive) | 4.71 µM (inactive) | 8.95 µM (inactive) | 21 µM (inactive) | 4.41 µM (inactive) | 2.7 µM (inactive)
COc1ccc(/C=C2\C(=O)NC(=O)c3ccccc32)cc1OC | 42.2 µM (inactive) | 3.15 µM (inactive) | > 86.9 µM (inactive) | 7.48 µM (inactive) | 49.8 µM (inactive) | 1.09 µM (active) | 39.4 µM (inactive) | 45.3 µM (inactive) | 32.2 µM (inactive) | > 46.6 µM (inactive) | 12.2 µM (inactive) | 48.2 µM (inactive) | > 66.5 µM (inactive) | 29.9 µM (inactive) | 6.78 µM (inactive) | 4.81 µM (inactive) | 42.3 µM (inactive) | 49.4 µM (inactive) | 16.6 µM (inactive) | 5.07 µM (inactive)
Cc1ccccc1NC(=O)c1c(C)oc2c1C(=O)c1ccccc1C2=O |  | 22.4 µM (inactive) | 10.2 µM (inactive) | 14.4 µM (inactive) | 29.7 µM (inactive) | 19.4 µM (inactive) | 30.9 µM (inactive) | 30.5 µM (inactive) | 36.9 µM (inactive) | 51.5 µM (inactive) | > 100 µM (inactive) |  | 63.5 µM (inactive) | > 85.3 µM (inactive) | 32.1 µM (inactive) | 33 µM (inactive) | > 53.7 µM (inactive) | > 38.7 µM (inactive) | 19.7 µM (inactive) | 65.5 µM (inactive)
c1cc2c3c(c1)c1cc4c(cc1c[n+]3CC2)OCO4 [ANHYDROLYCORINIUM CHLORIDE] | > 225 µM (inactive) | 4.47 µM (inactive) | 0.871 µM (active) | 3.4 µM (inactive) | 3.59 µM (inactive) | 3.35 µM (inactive) | 0.582 µM (active) | 4.26 µM (inactive) |  | 2.75 µM (inactive) | 6.12 µM (inactive) |  | 2.37 µM (inactive) | > 127 µM (inactive) | 2.81 µM (inactive) | 8.83 µM (inactive) | 1.99 µM (inactive) | 1.25 µM (inactive) | 1.9 µM (inactive) | 3.56 µM (inactive)
O=[N+]([O-])c1cccc2nc3ccccc3c(NCCO)c12 | 0.00566 µM (active) | 0.000237 µM (active) | 0.00331 µM (active) | 0.000486 µM (active) | 0.00194 µM (active) | 0.00989 µM (active) | 0.00366 µM (active) | 0.00502 µM (active) | 0.00151 µM (active) | 0.00166 µM (active) | 0.00169 µM (active) | 0.00215 µM (active) | 0.00383 µM (active) | 0.00244 µM (active) | 0.00202 µM (active) | 0.000277 µM (active) | 0.00197 µM (active) | 0.00248 µM (active) | 0.00118 µM (active) | 0.000121 µM (active)
CCCCCCCCCCCCCCCCCCOCC(O)CO (stereo not given) [BATILOL] | > 25 µM (inactive) | > 22.4 µM (inactive) | > 11.1 µM (inactive) | > 23.9 µM (inactive) | > 25 µM (inactive) | 10.7 µM (inactive) | 21.6 µM (inactive) | > 24.2 µM (inactive) |  | 12.4 µM (inactive) | 16.7 µM (inactive) |  | 3.61 µM (inactive) | 12.5 µM (inactive) | > 25 µM (inactive) | > 25 µM (inactive) | > 25 µM (inactive) | > 21.6 µM (inactive) | > 17 µM (inactive) | 19.1 µM (inactive)
O=C1C=C(Nc2ccc(S(=O)(=O)Nc3ncccn3)cc2)c2ccccc2C1=O |  | 15.6 µM (inactive) | 23.9 µM (inactive) | 14.6 µM (inactive) | 17.4 µM (inactive) | 26.3 µM (inactive) | 18.4 µM (inactive) | 18.4 µM (inactive) | 27 µM (inactive) | 18 µM (inactive) | 23.3 µM (inactive) |  | 30.3 µM (inactive) | 24 µM (inactive) | 18.9 µM (inactive) | 20.7 µM (inactive) | 21.5 µM (inactive) | 28.4 µM (inactive) | 19.5 µM (inactive) | 28.7 µM (inactive)
Cc1ccc(C(=O)C(C)N)cc1C (stereo not given) |  | > 100 µM (inactive) | > 100 µM (inactive) | > 100 µM (inactive) | > 100 µM (inactive) | > 100 µM (inactive) | > 100 µM (inactive) | > 100 µM (inactive) | > 100 µM (inactive) | > 100 µM (inactive) | > 100 µM (inactive) |  | > 100 µM (inactive) | > 100 µM (inactive) | > 100 µM (inactive) | > 100 µM (inactive) | > 100 µM (inactive) | > 100 µM (inactive) | > 100 µM (inactive) | > 100 µM (inactive)
CC(=O)Oc1cc2c(cc1OC(C)=O)OCC(c1ccc(C)cc1)C2 (stereo not given) | 25.5 µM (inactive) | 17.1 µM (inactive) | 19 µM (inactive) | 21.6 µM (inactive) | 15.9 µM (inactive) | 4.07 µM (inactive) | 21.6 µM (inactive) | 20 µM (inactive) |  | 12.6 µM (inactive) | 17.5 µM (inactive) |  | 8.69 µM (inactive) | 20.6 µM (inactive) | 20.7 µM (inactive) | 21.8 µM (inactive) | 18.1 µM (inactive) | 27.1 µM (inactive) | 19.5 µM (inactive) | 25.1 µM (inactive)
N=C(N)SCc1cccc([N+](=O)[O-])c1 | 21.2 µM (inactive) | 22.1 µM (inactive) | 34.2 µM (inactive) | 18.6 µM (inactive) | 30.5 µM (inactive) | 27.7 µM (inactive) | 24.4 µM (inactive) | 24 µM (inactive) |  | 34.1 µM (inactive) | 24.8 µM (inactive) |  | 25.1 µM (inactive) | 36.8 µM (inactive) | 26.5 µM (inactive) | 27.2 µM (inactive) | 37 µM (inactive) | 24.3 µM (inactive) | 36.6 µM (inactive) | 31.7 µM (inactive)
CC1(c2ccc[n+](Cc3ccccc3)c2)OCCO1 |  | > 100 µM (inactive) | > 100 µM (inactive) | > 100 µM (inactive) | > 100 µM (inactive) | > 100 µM (inactive) | > 100 µM (inactive) | > 100 µM (inactive) | > 100 µM (inactive) | > 100 µM (inactive) | > 100 µM (inactive) |  | > 100 µM (inactive) | > 100 µM (inactive) | > 100 µM (inactive) | > 100 µM (inactive) | > 100 µM (inactive) | > 100 µM (inactive) | > 100 µM (inactive) | > 100 µM (inactive)
CN1CCC23c4ccccc4NC1C21CCN(C)C3Nc2ccccc21 | > 375 µM (inactive) | 130 µM (inactive) | 249 µM (inactive) | > 375 µM (inactive) | > 375 µM (inactive) | 137 µM (inactive) | 268 µM (inactive) | > 375 µM (inactive) |  | > 375 µM (inactive) | 152 µM (inactive) |  | > 218 µM (inactive) | > 301 µM (inactive) | 356 µM (inactive) | > 375 µM (inactive) | > 375 µM (inactive) | 206 µM (inactive) | > 375 µM (inactive) | > 239 µM (inactive)
CC(=O)OC1CC2C(C)(C)C(=O)C=C[C@]2(C)C2CCC3(C)C(=CC(=O)C3c3ccoc3)[C@]12C (stereo not given in full) |  | 9.55 µM (inactive) | 17.5 µM (inactive) | 11.5 µM (inactive) | 12.7 µM (inactive) | 8.47 µM (inactive) | 11.9 µM (inactive) | 17.9 µM (inactive) | 16.2 µM (inactive) | 12.3 µM (inactive) | 2.3 µM (inactive) |  | 16.9 µM (inactive) | 18.9 µM (inactive) | 11.6 µM (inactive) | 12.4 µM (inactive) | 16.7 µM (inactive) | 17.8 µM (inactive) | 10.5 µM (inactive) | 14.7 µM (inactive)
